Experimental findings from US12479812B2, “Fatty acid derivatives and their use” (THE UNITED STATES OF AMERICA, as represented by the …, priority 2017, dated 2025) are described below.

The test system of data set [1] is adult rat dorsal root ganglia (DRG) neurons. Nature of the data set: Ex vivo CGRP release assay in adult rat sensory neuronal cultures. Type of data set: cell-based. Conditions: 1 μM; for capsaicin-evoked CGRP release: 30 nM capsaicin; for low-pH-evoked CGRP release: buffer pH adjusted to 6.0. On the procedure:
For release experiments, the work was approved by the Animal Care and Use Committee at Indiana University School of Medicine, Indianapolis, IN. Adult rat sensory neuronal cultures were prepared as previously described (Burkey, Hingtgen, and Vasko, Methods in molecular medicine 99, 189, 2004; Kelley et al., PloS one 9, e106485, 2014). Cells were maintained for 10-12 days in F-12 media (Invitrogen, Carlsbad, CA) supplemented with 10% horse serum, 2 mM glutamine, 100 μg/ml normocin™, 50 μg/ml penicillin, 50 μg/ml streptomycin, 50 μM 5-fluoro-2′-deoxyuridine (Invitrogen), 150 μM uridine, and 30 ng/ml of NGF (Harlan Bioproducts for Science, Inc. Indianapolis, IN) in 3% CO2 at 37° C. On the day of the release experiments, cultures were washed with HEPES buffer (25 mM HEPES, 135 mM NaCl, 3.5 mM KCl, 2.5 mM CaCl2, 1 mM MgCl2, 3.3 mM D-glucose, and 0.1% bovine serum albumin, pH 7.4 and maintained at 37° C. Cultures were then incubated with 0.4 ml of the same buffer in the absence or presence of drugs. Basal release was determined by exposing the cells to HEPES buffer alone for 10 min, then to buffer in the presence of mediators for 10 min to ascertain if the compounds stimulated release. Cultures were then exposed to buffer containing 30 nM capsaicin or buffer with the pH adjusted to 6.0 in the absence or presence of mediators. Cells then were re-exposed to HEPES buffer without drugs for a 10 min incubation to reestablish basal release. After each incubation, the buffer was removed to measure the amount of CGRP using radioimmunoassay as previously described (Chen et al., Peptides 17, 31, 1996). At the end of each release experiment, cells were hypotonically lysed by exposing the cultures to 0.1 M HCl for 10 min and an aliquot taken to measure total CGRP content in the cultures using radioimmunoassay. […] Release data are presented in fmol/well of cell/10 min from three independent experiments from separate harvests. Statistical analysis was performed using ANOVA with Tukey's post hoc test.

Another data set relates to human THP-1 cells. Nature of the data set: ApoA1 cholesterol efflux screen in THP-1 cells. Conditions: 50 μM; THP-1 cells incubated with ApoA1. Type of data set: cell-based. On the procedure: Human THP-1 cells were incubated with ApoA1 in the presence of linoleic acid or several different fatty acid derivatives (50 μM) in a blinded manner, and resulting cholesterol efflux was measured (FIG. 9) as previously described (PMID: 26879139).

Data set [2] is described as follows: Incubation under esterification conditions (glycerol on silica gel, 3 days), LC-MS. The format is physicochemical. Particulars: for esterification with glycerol: free acid in ether with glycerol-coated silica gel, 3 days; for internal lactonization: under the esterification conditions. The protocol:
• A: 10 mM NH4OAc, pH 7.4 • B: Acetonitrile+0.1% formic acid • 0-1.50 min: 5% B • 1.50-2 min: 5-90% B • 2-10 min: 90% B • 10.01-15 min: 5% B • DAD1 254 nm • DAD2 215 nm • Agilent Zorbax XDB-C18 5 μm C18 50×2.0 mm • 0.4 ml/min MS Parameters: Agilent 6120 with Electrospray Ionization • Drying gas flow: 11.0 L/min • Nebulizer pressure: 40 psig • Drying gas temperature: 350 C • Positive capillary voltage: 4000 V • Negative capillary voltage: 3000 V
Approximately 30 mg of silica gel was added to 25 mg of glycerol, and it was then vortexed to coat all of the silica with glycerol, until the admixture was free-flowing. Between 5-10 mg of this material was added to a solution of the free acid in ether, and it was vortexed briefly. The reaction was left for 3 days, then filtered and evaporated under nitrogen. The residue was redissolved in ethanol and analyzed by LC-MS, in both positive and negative modes.

The subject of another data set is female mice (C57BL/6J). Nature of the data set: Pruriceptive (itch) behavior, scratching bouts after intradermal injection into nape of neck. Type of data set: in vivo, mouse. Particulars: for itch-related scratching behavior compared to vehicle: 100 μg (mixture 100 μg of each) intradermal, n=6-8 per group, 30 minutes; for scratching bouts compared to vehicle, pilot testing: n=3 per group, first 30 minutes after intradermal injection; for onset of scratching responses (significantly greater than vehicle) / time of maximum scratching response: 9K-12,13E-LA 100 μg, histamine 50 μg. On the procedure: Hydroxy- and keto-epoxide derivatives of LA (100 μg) or histamine (50 μg) were injected intra-dermally into the nape of neck of the female mice (C57BL/6J from Jackson Laboratory). LA derivatives (9-keto-12,13-epoxy-(10E)-octadecenoate or 13-keto-9,10-epoxy-(11E)-octadecenoate) were injected independently, and in combination (9-keto-12,13-epoxy-(10E)-octadecenoate plus 13-keto-9,10-epoxy-(11E)-octadecenoate (100 μg of each)). Pruriceptive behavior was quantified as the number of scratching bouts assessed over 30 minutes, as previously described (Mishra and Hoon, Science 340, 968, 2013).

The subject of data set [3] is tumor necrosis factor (TNF)-alpha secretion, human PBMCs. Nature of the data set: PBMC cytokine secretion (ELISA): TNF-alpha. Type of data set: cell-based. Conditions: 100 μM, 24 hours. The protocol: (§1) Freshly isolated human PBMCs were pre-incubated (FIGS. 11A and 11C) or not (FIGS. 11B and 11D) with LPS, and then incubated with ferulic acid (“FA,” 100 μM) and 11H-12,13E-LA, 11K-12,13E-LA, PBS, or LPS alone for 24 hours (blinded). Then, the medium concentration of TNF-alpha (FIGS. 11A and 11B) or […] (FIGS. 11C and 11D) was measured using enzyme-linked immunosorbent assay.
(ELISA stands for enzyme-linked immunosorbent assay.)

Data set [4] deals with interleukin (IL)-1, human PBMCs. Nature of the data set: PBMC cytokine secretion (ELISA): IL-1. The format is cell-based. Conditions: 100 μM; with or without LPS; 24 hours. The protocol: as §1
The subject of data set [5] is freshly isolated human PBMCs. Nature of the data set: ApoA1 cholesterol efflux screen in freshly isolated PBMCs. Type of data set: cell-based. Conditions: 50 μM.
For a further data set, the system named is male Sprague-Dawley rats. Nature of the data set: Nociceptive (pain) behavior after intradermal hindpaw injection. Type of data set: in vivo, rat. On the procedure: 11-hydroxy-12,13-trans-epoxy-(9Z)-octadecenoate (30 μg) was injected intradermally into the hindpaw of male Sprague-Dawley rats. Baseline measurements were taken for all tests prior to injection. A-delta and C-fiber mediated hindpaw withdrawal responses were measured as previously described (Mitchell et al., Pain 155, 733, 2014). Briefly, by stimulation of the plantar surface of the paw with a 100 ms laser pulse, producing a rapid withdrawal response. Laser pulses were delivered by an infrared diode laser (LASS-10 M; Lasmed, Mountain View, CA, USA) and calibrated to 3500 mA at 0.5 mm diameter, and delivered from 1 cm distance, C-fiber mediated responses were measured by delivery of a slow temperature ramp to the plantar surface of the hindpaw, with stimulus termination by voluntary withdrawal of the paw. The laser stimulus was adjusted to result in an approximately 10 second withdrawal latency (1000 mA, 13 cm distance).

The test system of data set [6] is murine trigeminal sensory neurons. Nature of the data set: Ca2+ responses in cultured trigeminal sensory neurons. The format is cell-based, mouse. Conditions: FIG. 7B. On the procedure: Additionally, murine trigeminal sensory neurons were isolated and cultured in vitro. Fatty acid derivatives were applied to the cultured neurons and any resulting Ca^2+ response was measured in a blinded manner. The assayed compounds include: 11H-12,13E-LA (Compound 1), 11K-12,13E-LA (Compound 2), 11H-9,10E-LA (Compound 3), and 11K-9,10E-LA (Compound 4).

Data set [7] deals with normal mice or a mast cell knock-out mouse. Nature of the data set: Itch-related scratching in normal and mast cell knock-out mice. The format is in vivo. Particulars: 100 μg intradermal; 30 minutes. On the procedure:
The fatty acid derivative 9K-12,13E-LA (100 μg) was injected intra-dermally into the nape of neck of normal mice or a mast cell knock-out mouse (FIG. 8) in a blinded manner. Pruriceptive behavior was quantified as the number of scratching bouts assessed over 30 minutes, as previously described (Mishra and Hoon, Science 340, 968, 2013).

On to `CCCCCC(O)/C=C/C1OC1CCCCCCCC(=O)O` (stereo not drawn) [13H-9,10E-LA, 13-hydroxy(H)-9,10-trans-epoxy-(E)-octadecenoate], for which, in data set [1], the “capsaicin-evoked CGRP release” value is “had no effect” and the “low-pH-evoked CGRP release” value was “significantly augmented”.
As for “9-hydroxy-octadecadienoic acid [reference compound]”, in the data set on human THP-1 cells, the “ApoA1-mediated monocyte cholesterol efflux” value is “increased”.
On to `CC/C=C\C/C=C\C/C=C\C/C=C\C/C=C\C=C\C(O)CC(C)C(=O)O` (centres unmarked) [2-methyl-4-hydroxy-DHA], for which, in [2], the esterification with glycerol entry is “resistant to glycerol esterification” and the internal lactonization entry is on record as “competitive lactonization”.
Take `CCCCCC1OC1/C=C/C(O)CCCCCCCC(=O)O` (stereo not drawn) [9H-12,13E-LA, 9-hydroxy(H)-12,13-trans-epoxy-(E)-octadecenoate]: in data set [1], the “capsaicin-evoked CGRP release” value is listed as “Neither 9H-12,13E-LA, nor any of the tested keto-epoxy-octadecenoates, augmented” and the “low-pH-evoked CGRP release” value is given as “Neither 9H-12,13E-LA, nor any of the tested keto-epoxy-octadecenoates, augmented”.
Turning to `CC/C=C\C/C=C\C/C=C\C/C=C\C/C=C\C=C\C(O)CCC(=O)O` (centres unmarked) [4-hydroxy-DHA, reference compound], in data set [2], the internal lactonization result is “rapidly undergoes internal lactonization”.
Consider `CCCCCC(=O)/C=C/C1OC1CCCCCCCC(=O)O` (stereo not drawn) [13K-9,10E-LA, 13-keto(K)-9,10-trans-epoxy-(E)-octadecenoate], for which, in the data set on female mice (C57BL/6J), the “itch-related scratching behavior compared to vehicle” value is on record as “no response” and the “scratching bouts compared to vehicle, pilot testing” value is reported as “appeared to increase scratching bouts”.
For the molecule `CCCCCC1OC1C(=O)/C=C\CCCCCCCC(=O)O` (stereo not drawn) [11K-12,13E-LA, 11-keto(K)-12,13-trans-epoxy-(E)-octadecenoate], in data set [3] (LPS pre-incubation), the “LPS-induced TNF-alpha secretion” value is “inhibits”. Further, the “native TNF-alpha secretion” value in [3] (no LPS) is recorded as “inhibits”. Moreover, the “ApoA1-mediated monocyte cholesterol efflux” value (in the data set with human THP-1 cells; in [5]) was “inhibited” throughout. For the same molecule, the IL-1 secretion result in [4] is listed as “has no effect”.
Regarding `CCCCC[C@H](O)/C=C/[C@H]1[C@H](O)CC(=O)[C@@H]1C/C=C\CCCC(=O)O` [PGE2, prostaglandin E2, reference compound], the “proportion of withdrawal responses following Aδ fiber laser stimulation” value in the data set on male Sprague-Dawley rats (after intradermal hindpaw injection) is “significantly enhanced”. Also, in the data set with male Sprague-Dawley rats (after intradermal hindpaw injection (11H-12,13E-LA 30 μg), versus vehicle), the “decrease of C-fiber withdrawal latencies” value is 46%. Further, in data set [1] (neutral pH), the “direct stimulation of CGRP release” value is “neither PGE2 nor any of the other tested compounds directly stimulated”. Also, in data set [1], the “capsaicin-evoked CGRP release” value is “significantly augmented” and the “low-pH-evoked CGRP release” value was “significantly augmented”.
For `CCCCC/C=C\C(O)C1OC1CCCCCCCC(=O)O` (stereo not drawn) [11H-9,10E-LA, 11-hydroxy(H)-9,10-trans-epoxy-(E)-octadecenoate], in data set [1], the “capsaicin-evoked CGRP release” value is “significantly augmented” and the “low-pH-evoked CGRP release” value is given as “significantly augmented”. Moreover, the “number of trigeminal cells responding, concentration-response” value in data set [6] was “increase in the number of cells responding”.
On to `CCCCCC1OC1/C=C/C(=O)CCCCCCCC(=O)O` (stereo not drawn) [9K-12,13E-LA, 9-keto(K)-12,13-trans-epoxy-(E)-octadecenoate], for which, in the data set on female mice (C57BL/6J), the “itch-related scratching behavior compared to vehicle” value is “induced itch-related scratching behavior”; the “onset of scratching responses (significantly greater than vehicle)” value is listed as “slower onset”; the “time of maximum scratching response” value lay in the range of 10 to 15 min; the “scratching bouts compared to vehicle, pilot testing” value is on record as “appeared to increase scratching bouts”. Moreover, in data set [7], the “scratching responses in mast cell knockout mice” value was “increased scratching responses” and the “scratching responses in wild type mice” value is on record as “increased scratching responses”.
Consider `CC/C=C\C/C=C\C/C=C\C/C=C\C/C=C\C=C\C(O)CC(C)(C)C(=O)O` (centres unmarked) [2,2-dimethyl-4-hydroxy-DHA], for which, in data set [2], the esterification with glycerol entry is given as “resistant to esterification, including internal lactonization” and the internal lactonization entry is reported as “did not lactonize”.
With `CCCCCC(O)/C=C/C1OC1CCCCCCC(C)(C)C(=O)O` (stereo not drawn) [2,2-dimethyl-13-hydroxy-9,10-trans-epoxy-(11E)-octadecenoic acid], the esterification with glycerol result in data set [2] is reported as “resistant to esterification”.
Take `NCCc1c[nH]cn1` [histamine, reference compound]: in the data set on female mice (C57BL/6J), the “onset of scratching responses (significantly greater than vehicle)” value is no more than 5 min and the “time of maximum scratching response” value is 5 to 10 min.
As for `CCCCC/C=C\C/C=C\CCCCCCCC(=O)O` [Linoleic acid, reference compound], the “ApoA1-mediated monocyte cholesterol efflux” value with human THP-1 cells is on record as “increased cholesterol efflux”.
